# According to patent US20260374773A1, “MULTI-CYCLIC IRAK AND FLT3 INHIBITING COMPOUNDS AND USES THEREOF” (CHILDREN'S HOSPITAL MEDICAL CENTER, priority 2022, published 2026):
# Legend:
# [1] = target: T1, FLT3 (Homo sapiens, UniProt P36888); test: RBC HotSpot kinase inhibition assay, FLT3; assay type: biochemical; details: isolated kinase, 33P-ATP, 2 h
# T1 sequence (P36888 27-993): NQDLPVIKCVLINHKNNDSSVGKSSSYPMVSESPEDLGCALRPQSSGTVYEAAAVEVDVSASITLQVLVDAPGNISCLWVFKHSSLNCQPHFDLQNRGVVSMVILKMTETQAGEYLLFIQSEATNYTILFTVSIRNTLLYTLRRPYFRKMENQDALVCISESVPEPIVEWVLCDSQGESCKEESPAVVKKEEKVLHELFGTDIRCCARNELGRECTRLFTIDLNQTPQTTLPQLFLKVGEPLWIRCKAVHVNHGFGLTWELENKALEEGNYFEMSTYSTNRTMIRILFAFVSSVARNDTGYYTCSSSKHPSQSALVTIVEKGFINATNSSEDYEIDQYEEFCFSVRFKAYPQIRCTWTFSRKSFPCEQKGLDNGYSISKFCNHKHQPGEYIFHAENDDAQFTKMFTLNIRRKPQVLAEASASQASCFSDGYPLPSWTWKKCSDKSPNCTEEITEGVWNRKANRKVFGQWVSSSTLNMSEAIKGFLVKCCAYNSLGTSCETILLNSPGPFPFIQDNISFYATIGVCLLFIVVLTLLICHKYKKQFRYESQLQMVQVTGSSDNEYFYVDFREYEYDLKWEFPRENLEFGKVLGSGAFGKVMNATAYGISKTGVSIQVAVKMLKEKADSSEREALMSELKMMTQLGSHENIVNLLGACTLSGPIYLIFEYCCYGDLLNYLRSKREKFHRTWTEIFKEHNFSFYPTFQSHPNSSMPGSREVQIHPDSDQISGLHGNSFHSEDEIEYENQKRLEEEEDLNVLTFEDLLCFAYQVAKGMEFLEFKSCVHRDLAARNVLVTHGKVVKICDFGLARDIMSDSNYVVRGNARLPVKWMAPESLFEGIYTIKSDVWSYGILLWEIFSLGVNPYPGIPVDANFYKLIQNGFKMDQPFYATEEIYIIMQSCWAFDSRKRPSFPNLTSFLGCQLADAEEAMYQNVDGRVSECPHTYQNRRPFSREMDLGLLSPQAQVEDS
# Excerpt: (§1) This assay uses the isolated kinase enzyme. This assay is very useful for determining competition of the inhibitor for ATP and/or substrates and for measuring the kinetics of enzyme inhibition. […] Unlike kinase binding assays that measure competition for ATP, the HotSpot Kinase Assay is a functional assay that measures catalytic activity; as such it measures relative functional potency regardless of the mechanism of enzyme inhibition. This assay uses the form of the various enzymes that are easiest to express, which may not necessarily be the form of the enzyme that exist in the cell. (Sometimes the carboxy terminus has been truncated to aid in expression, or, if it is a receptor kinase, the enzyme itself is isolated from the other parts of the receptor that are involved in regulating kinase activity.)
# (§2) The reagent used was as follows: Base Reaction buffer; 20 mM Hepes (pH 7.5), 10 mM MgCl2, 1 mM EGTA, 0.01% Brij35, 0.02 mg/ml BSA, 0.1 mM Na3VO4, 2 mM DTT, 1% DMSO. Required cofactors were added individually to each kinase reaction.
# (§3) The reaction procedure was as follows: • 1) Substrates were prepared in freshly prepared Reaction Buffer. • 2) Any required cofactors were delivered to the substrate solution above. • 3) Kinase was delivered into the substrate solution and gently mixed. • 4) Compounds were delivered in 100% DMSO into the kinase reaction mixture by Acoustic technology (Echo550; nanoliter range), followed by incubation for 20 min at room temp. • 5) ^33P-ATP was delivered into the reaction mixture to initiate the reaction. • 6) The mixture was incubated for 2 hours at room temperature. • 7) Kinase activity was detected by P81 filter-binding method.
# as §1, with “Although not wishing to be limited by theory, it is believed that sometimes” for “(Sometimes”, “activity.” for “activity.)”
# (§4) The reagent used was as follows: Base Reaction buffer; 20 mM Hepes (pH 7.5), 10 mM MgCl2, 1 mM EGTA, 0.01% Brij35, 0.02 mg/ml BSA, 0.1 mM Na3 VO4, 2 mM DTT, 1% DMSO.
# (§5) Required cofactors were added individually to each kinase reaction.
# as §3, with “33P-ATP” for “^33P-ATP”
# [2] = target: IRAK1 (Homo sapiens, UniProt P51617); test: RBC HotSpot kinase inhibition assay, IRAK1; assay type: biochemical; details: isolated kinase, 33P-ATP, 2 h
# Excerpt: as §1, §2, §3
# as §1, with “Although not wishing to be limited by theory, it is believed that sometimes” for “(Sometimes”, “activity.” for “activity.)”
# as §4, §5
# as §3, with “33P-ATP” for “^33P-ATP”
# Chain of IRAK1 (P51617 whole entry): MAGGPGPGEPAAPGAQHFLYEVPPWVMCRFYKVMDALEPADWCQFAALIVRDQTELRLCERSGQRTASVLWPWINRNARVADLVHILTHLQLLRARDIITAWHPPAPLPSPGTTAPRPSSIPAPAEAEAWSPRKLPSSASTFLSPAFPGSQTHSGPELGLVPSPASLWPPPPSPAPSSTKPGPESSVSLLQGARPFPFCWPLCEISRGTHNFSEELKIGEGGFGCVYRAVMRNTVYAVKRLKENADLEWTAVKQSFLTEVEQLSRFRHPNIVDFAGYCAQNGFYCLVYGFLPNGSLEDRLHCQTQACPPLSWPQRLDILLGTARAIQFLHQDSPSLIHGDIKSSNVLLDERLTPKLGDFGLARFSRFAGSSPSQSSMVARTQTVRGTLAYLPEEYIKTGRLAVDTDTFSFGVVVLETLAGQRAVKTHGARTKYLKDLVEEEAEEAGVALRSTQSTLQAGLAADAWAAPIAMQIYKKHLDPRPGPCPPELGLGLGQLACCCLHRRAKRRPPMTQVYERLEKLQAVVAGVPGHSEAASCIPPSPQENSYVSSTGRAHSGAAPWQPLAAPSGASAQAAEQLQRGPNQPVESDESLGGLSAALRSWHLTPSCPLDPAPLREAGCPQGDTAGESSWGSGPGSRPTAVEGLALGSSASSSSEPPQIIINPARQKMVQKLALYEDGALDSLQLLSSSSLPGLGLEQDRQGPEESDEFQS
SMILES,IC50 ([1]; Table 11) [nM],IC50 ([2]; Table 11) [nM],IC50 ([1]; Table 17) [nM],IC50 ([2]; Table 17) [nM]
"COc1cn2ncc(-c3nc(N[C@H]4CNC[C@@H]4F)c(F)cc3F)c2nc1C(C)(C)O [Compound 12, 2-(3-(3,5-difluoro-6-(((3S,4S)-4-fluoropyrrolidin-3-yl)amino)pyridin-2-yl)-6-methoxypyrazolo[1,5-a]pyrimidin-5-yl)propan-2-ol]",< 0.5,9,,
"COc1cn2ncc(-c3nc(N[C@H]4CNCC[C@@H]4F)c(F)cc3F)c2nc1C1CC1 [Compound 22, 6-(5-cyclopropyl-6-methoxypyrazolo[1,5-a]pyrimidin-3-yl)-3,5-difluoro-N-((3S,4S)-4-fluoropiperidin-3-yl)pyridin-2-amine]",< 0.5,< 0.5,,
"COc1cn2ncc(-c3nc(N[C@H]4CNCC[C@@H]4F)c(F)cc3F)c2nc1C(C)(C)O [Compound 13, 2-(3-(3,5-difluoro-6-(((3S,4S)-4-fluoropiperidin-3-yl)amino)pyridin-2-yl)-6-methoxypyrazolo[1,5-a]pyrimidin-5-yl)propan-2-ol]",< 0.5,7,,
"COc1cn2ncc(-c3nc(N[C@H]4CNCC[C@@H]4F)c(C#N)cc3F)c2nc1C(C)(C)O [Compound 10, 5-fluoro-2-(((3S,4S)-4-fluoropiperidin-3-yl)amino)-6-(5-(2-hydroxypropan-2-yl)-6-methoxypyrazolo[1,5-a]pyrimidin-3-yl)nicotinonitrile]",< 0.5,2,,
"COc1cn2ncc(-c3nc(N[C@@H]4CCCNC4)c(F)cc3F)c2nc1C(C)(C)O [Compound 11, (R)-2-(3-(3,5-difluoro-6-(piperidin-3-ylamino)pyridin-2-yl)-6-methoxypyrazolo[1,5-a]pyrimidin-5-yl)propan-2-ol]",< 0.5,3,,
"COc1cn2ncc(-c3nc(N[C@@H]4CCCNC4)ncc3F)c2nc1C(C)(C)O [Compound 4a, (R)-2-(3-(5-fluoro-2-(piperidin-3-ylamino)pyrimidin-4-yl)-6-methoxypyrazolo[1,5-a]pyrimidin-5-yl)propan-2-ol]",,,< 0.5,4
"COc1cn2ncc(-c3cccc(N[C@H]4CNC[C@@H]4F)n3)c2nc1C1CC1 [Compound 19, 6-(5-cyclopropyl-6-methoxypyrazolo[1,5-a]pyrimidin-3-yl)-N-((3S,4S)-4-fluoropyrrolidin-3-yl)pyridin-2-amine]",< 0.5,45,,
"COc1cn2ncc(-c3nc(N[C@@H]4CCCNC4)ccc3F)c2nc1C1CC1 [Compound 2, (R)-6-(5-cyclopropyl-6-methoxypyrazolo[1,5-a]pyrimidin-3-yl)-5-fluoro-N-(piperidin-3-yl)pyridin-2-amine]",< 0.5,4,,
"COc1cn2ncc(-c3nc(N[C@H]4CNCC[C@@H]4F)c(C#N)cc3F)c2nc1C1CC1 [Compound 7, 6-(5-cyclopropyl-6-methoxypyrazolo[1,5-a]pyrimidin-3-yl)-5-fluoro-2-(((3S,4S)-4-fluoropiperidin-3-yl)amino)nicotinonitrile]",< 0.5,< 0.5,,
"COc1cn2ncc(-c3nc(N[C@H]4CNCC[C@@H]4F)ncc3F)c2nc1C(C)(C)O [Compound 6a, 2-(3-(5-fluoro-2-(((3S,4S)-4-fluoropiperidin-3-yl)amino)pyrimidin-4-yl)-6-methoxypyrazolo[1,5-a]pyrimidin-5-yl)propan-2-ol]",,,< 0.5,3
"COc1cn2ncc(-c3cccc(N[C@H]4CNCC[C@@H]4F)n3)c2nc1C1CC1 [Compound 21, 6-(5-cyclopropyl-6-methoxypyrazolo[1,5-a]pyrimidin-3-yl)-N-((3S,4S)-4-fluoropiperidin-3-yl)pyridin-2-amine]",< 0.5,38,,
"COc1cn2ncc(-c3cccc(N[C@@H]4CCCNC4)n3)c2nc1C1CC1 [Compound 20, (R)-6-(5-cyclopropyl-6-methoxypyrazolo[1,5-a]pyrimidin-3-yl)-N-(piperidin-3-yl)pyridin-2-amine]",< 0.5,146,,
"COc1cn2ncc(-c3nc(N[C@H]4CNC[C@@H]4F)c(F)cc3F)c2nc1C1CC1 [Compound 24, 6-(5-cyclopropyl-6-methoxypyrazolo[1,5-a]pyrimidin-3-yl)-3,5-difluoro-N-((3S,4S)-4-fluoropyrrolidin-3-yl)pyridin-2-amine]",< 0.5,2,,
"COc1cn2ncc(-c3ccnc(N[C@H]4CNCC[C@@H]4F)n3)c2nc1C(C)(C)O [Compound 3a, 2-(3-(2-(((3S,4S)-4-fluoropiperidin-3-yl)amino)pyrimidin-4-yl)-6-methoxypyrazolo[1,5-a]pyrimidin-5-yl)propan-2-ol]",,,0.7,207
"COc1cn2ncc(-c3ccc(F)c(N[C@@H]4CCCNC4)n3)c2nc1C1CC1 [Compound 5, (R)-6-(5-cyclopropyl-6-methoxypyrazolo[1,5-a]pyrimidin-3-yl)-3-fluoro-N-(piperidin-3-yl)pyridin-2-amine]",< 0.5,29,,

# The remaining lines, values ahead:
IC50 ([1]; Table 11) [nM],IC50 ([2]; Table 11) [nM],IC50 ([1]; Table 17) [nM],IC50 ([2]; Table 17) [nM],SMILES
,,< 0.5,0.9,"COc1cn2ncc(-c3nc(N[C@@H]4CCCNC4)ncc3F)c2nc1C1CC1 [Compound 14a, (R)-4-(5-cyclopropyl-6-methoxypyrazolo[1,5-a]pyrimidin-3-yl)-5-fluoro-N-(piperidin-3-yl)pyrimidin-2-amine]"
,,0.7,< 0.5,"COc1cn2ncc(-c3nc(N[C@H]4CNCC[C@@H]4F)ncc3F)c2nc1C1CC1 [Compound 15a, 4-(5-cyclopropyl-6-methoxypyrazolo[1,5-a]pyrimidin-3-yl)-5-fluoro-N-((3S,4S)-4-fluoropiperidin-3-yl)pyrimidin-2-amine]"
,,< 0.5,15,"COc1cn2ncc(-c3cncc(N[C@@H]4CCCNC4)n3)c2nc1C1CC1 [Compound 11a, (R)-6-(5-cyclopropyl-6-methoxypyrazolo[1,5-a]pyrimidin-3-yl)-N-(piperidin-3-yl)pyrazin-2-amine]"
,,< 0.5,9,"COc1cn2ncc(-c3ccnc(N[C@H]4CNC[C@@H]4F)n3)c2nc1C1CC1 [Compound 8a, 4-(5-cyclopropyl-6-methoxypyrazolo[1,5-a]pyrimidin-3-yl)-N-((3S,4S)-4-fluoropyrrolidin-3-yl)pyrimidin-2-amine]"
,,< 0.5,6,"COc1cn2ncc(-c3cncc(N[C@H]4CNCC[C@@H]4F)n3)c2nc1C1CC1 [Compound 12a, 6-(5-cyclopropyl-6-methoxypyrazolo[1,5-a]pyrimidin-3-yl)-N-((3S,4S)-4-fluoropiperidin-3-yl)pyrazin-2-amine]"
